Test results published in patent US7601713B2, “Kinase inhibitors and their uses” (Rigel Pharmaceuticals, Inc., priority 2005, dated 2009).

biological target: T1, Axl kinase (Homo sapiens, UniProt P30530); assay: Phospho-Akt in-cell Western assay (Axl antibody cross-linking, Hela cells); type: cell-based; conditions: phospho-Akt readout, read-out: IC50, inhibition of Axl kinase
T1 construct: endogenous in cells; host or cells: HeLa cells
T1 sequence (P30530 26-894): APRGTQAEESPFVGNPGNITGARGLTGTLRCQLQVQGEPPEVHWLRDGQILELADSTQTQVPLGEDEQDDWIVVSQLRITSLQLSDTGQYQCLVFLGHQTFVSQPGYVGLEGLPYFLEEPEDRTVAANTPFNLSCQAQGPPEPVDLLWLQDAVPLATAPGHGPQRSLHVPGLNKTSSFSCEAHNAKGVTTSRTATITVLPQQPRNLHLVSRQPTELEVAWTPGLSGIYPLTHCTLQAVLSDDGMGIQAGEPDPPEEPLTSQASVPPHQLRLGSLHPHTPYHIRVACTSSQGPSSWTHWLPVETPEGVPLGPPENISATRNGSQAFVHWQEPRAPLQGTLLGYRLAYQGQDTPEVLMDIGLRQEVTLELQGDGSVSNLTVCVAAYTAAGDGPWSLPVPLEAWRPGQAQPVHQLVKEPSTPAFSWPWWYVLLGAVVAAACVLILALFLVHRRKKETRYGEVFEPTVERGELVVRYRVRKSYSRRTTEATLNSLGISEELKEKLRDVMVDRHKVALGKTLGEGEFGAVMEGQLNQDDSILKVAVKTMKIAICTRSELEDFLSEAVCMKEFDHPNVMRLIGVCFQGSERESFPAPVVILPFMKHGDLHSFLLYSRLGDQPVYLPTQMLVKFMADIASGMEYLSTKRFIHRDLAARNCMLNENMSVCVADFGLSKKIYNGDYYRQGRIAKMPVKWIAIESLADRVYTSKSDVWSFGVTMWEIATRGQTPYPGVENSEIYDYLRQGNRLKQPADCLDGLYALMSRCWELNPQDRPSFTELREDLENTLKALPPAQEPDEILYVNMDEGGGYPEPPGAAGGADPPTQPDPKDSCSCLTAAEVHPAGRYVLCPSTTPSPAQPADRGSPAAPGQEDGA
Description: The compounds of the invention were tested in the following assay for their ability to inhibit Axl activity.
Phospho-Akt in-Cell Western Assay
Starvation medium: For Axl stimulation: 0.5% FCS (fetal calf serum) in DMEM, plus Axl/Fc (extracellular domain of AXL fused to immunoglobulin Fc region) (R&D, 154-AL) 500 ng/mL.
Axl antibody cross-linking: • 1st: Mouse anti-Axl (R&D, MAB 154). • 2nd: Biotin-SP-conjugated AffiniPure goat anti-mouse IgG (H+L) (Jackson ImmunoResearch #115-065-003).
Primary antibody: Rabbit anti-human Phospho-Akt antibody (Cell Signaling 9271): 1×250 diluted in blocking buffer.
Secondary antibody: HRP (horse radish peroxidase)-conjugated Goat anti-Rabbit secondary, stock solution: Jackson lmmunoResearch (Goat anti-Rabbit HRP, #111-035-144) 1:1 diluted in glycerol, store at −20° C. The working solution: 1×2000 dilution of stock in blocking buffer.
A 96 well TC (tissue culture treated) plate was coated with 10 μg/mL poly-L-Lysine at 37° C. for 30 min, washed twice with PBS, and air-dried for 5 minutes before cells were added. Hela cells were seeded at 10,000 cells/well and the cells were starved in 100 μL starvation medium containing Axl/Fc for 24 hrs.
The cells were pre-treated with test compounds by adding 100 μL of 2× test compound to the starvation medium on the cells. The cells were incubated at 37° C. for 1 hr before stimulation.
The cells were stimulated by Axl-antibody cross-linking as follows: A 5× 1st/2nd Axl antibody mixture was made (37.5 μg/mL 1st/100 μg/mL 2nd) in starvation medium and nutated at 4° C. with thorough mixing for 1-2 hours for clustering. The resulting mix was warmed to 37° C. 50 μL of 5× Axl 1st/2nd of antibody cluster was added to the cells and the cells were incubated at 37° C. for 5 min.
After 5 minutes stimulation, the plate was flicked to remove medium and the plate was tapped onto paper towels. Formaldehyde (4.0% in PBS, 100 μL) was added to fix the cells and the cells were incubated at ambient temperature for 20 min without shaking.
The cells were washed with a plate washer buffer to remove the formaldehyde solution. The plate was flicked to remove excess wash buffer and tapped onto paper towels. Quenching buffer (100 μL) was added to each well and the cells were incubated at ambient temperature for 20 minutes without shaking.
The cells were washed with a plate washer buffer to remove the quenching buffer. Blocking buffer (100 μL) was added and the cells were incubated at ambient temperature for at least an hour with gentle shaking.
The cells were washed with a plate washer buffer and diluted primary antibody (50 μL) was added to each well (blocking buffer was added to the negative control wells instead). The plates were incubated overnight at 4° C. with gentle shaking.
The wash buffer was removed, diluted secondary antibody (100 μL) was added, and the cells were incubated at ambient temperature for 1 hour with gentle shaking. During the incubation, the chemiluminescent reagent was brought to ambient temperature.
The secondary antibody was removed by washing the cells 1× with wash buffer, 1× with PBS by plate washer. The PBS was removed from the plate and the chemiluminescent reagent (80 μL: 40 μL A and 40 μL B) was added to each well at ambient temperature.
The resulting chemiluminescence was read with a Luminomitor within 10 minutes to minimize changes in signal intensity. After reading the chemiluminescence, the cells were washed 1× with wash buffer and 1× with PBS by plate washer. The plate was tapped onto paper towels to remove excess liquid from wells and air-dried at ambient temperature for 5 minutes.
Crystal Violet working solution (60 μL) was added to each well and the cells were incubated at ambient temperature for 30 min. The crystal violet solution was removed, and the wells were rinsed with PBS, then washed 3× with PBS (200 μL) for 5 minutes each.
5% SDS solution (70 μL) was added to each well and the cells were incubated on a shaker for 30 min at ambient temperature. […]

IC50	Structure (SMILES)
> 10 µM	NC(=O)[C@H]1C2C=CC(C2)[C@H]1Nc1nc(Nc2ccc(OCCN3CCCC3)cc2)nc2cc(C(F)(F)F)sc12 (stereo partly drawn) [Compound 210, (2S,3R)-3-(2-(4-(2-(pyrrolidin-1-yl)ethoxy)phenylamino)-6-(trifluoromethyl)thieno [3,2-d]pyrimidin-4-ylamino)bicyclo[2.2.1] hept-5-ene-2-carboxamide]
< 10 µM	CCOC(=O)C1C2C=CC(C2)C1Nc1nc(Nc2cccc(OC)c2)nc2[nH]ccc12 (racemic) [Compound 232, Racemic-(2-exo,3-exo)-N4-(3-ethoxycarbonylbicyclo [2.2.1]hept-5-en-2-yl)-N2-(3-methoxyphenyl)-1H-pyrrolo[2,3-d]pyrimidine-2,4-diamine]
< 5 µM	CCN(CC)C(=O)c1cccc(Nc2nc(NC3C4C=CC(C4)C3C(N)=O)c3cc[nH]c3n2)c1 (racemic) [Compound 222, Racemic-(2-exo,3-exo)-N4-(3-aminocarbonylbicyclo [2.2.1]hept-5-en-2-yl)-N2-(3-N,N-diethyl-aminocarbonyl-phenyl)-1H-pyrrolo[2,3-d]pyrimidine-2,4-diamine]
< 5 µM	NC(=O)C1C2C=CC(C2)C1Nc1nc(Nc2ccc(OCCN3CCCC3)cc2)nc2c1CCC2 (stereo not shown) [Compound 185, 3-(2-(4-(2-(pyrrolidin-1-yl)ethoxy)phenylamino)-6,7-dihydro-5H-cyclopenta[d]pyrimidin-4-ylamino)bicyclo[2.2.1] hept-5-ene-2-carboxamide]
> 10 µM	NC(=O)[C@H]1C2C=CC(C2)[C@H]1Nc1nc(Nc2ccc(OCCN3CCCC3)cc2)nc2c1cnn2Cc1ccccc1 (stereo partly drawn) [Compound 189, (2S,3R)-3-(1-benzyl-6-(4-(2-(pyrrolidin-1-yl)ethoxy)phenylamino)-1H-pyrazolo[3,4-d]pyrimidin-4-ylamino)bicyclo[2.2.1] hept-5-ene-2-carboxamide]
< 5 µM	CC1CCN(C2CCN(c3ccc(Nc4nc(N[C@@H]5C6C=CC(C6)[C@@H]5C(N)=O)c5sc(C(F)(F)F)cc5n4)cc3F)CC2)CC1 (stereo partly drawn) [Compound 209, (2S,3R)-3-(2-(3-fluoro-4-(4-methyl-1,4′-bipiperidin-1′-yl)phenylamino)-6-(trifluoromethyl)thieno [3,2-d]pyrimidin-4 ylamino)bicyclo[2.2.1] hept-5-ene-2-carboxamide]
< 5 µM	CNC(=O)[C@H]1CC2CC(C2(C)C)[C@@]1(C)Nc1nc(Nc2ccc(N3CCN(C4CCCCC4)CC3)cc2)nc2ccsc12 (stereo in doubt) [Compound 198, (1S,2R,3S,SR)-2-(2-(4-(4-cyclohexylpiperazin-1-yl)phenylamino)thieno [3,2-d]pyrimidin-4-ylamino)-N,2,6,6-tetramethylbicyclo[3.1.1] heptane-3-carboxamide]
< 5 µM	NC(=O)C1C2C=CC(C2)C1Nc1nc(Nc2ccc(OCCN3CCCC3)cc2)nc2[nH]cnc12 (racemic) [Compound 234]
> 10 µM	CCOC(=O)N1CCN(c2ccc(Nc3nc(N[C@@H]4C5C=CC(C5)[C@@H]4C(N)=O)c4sccc4n3)cc2F)CC1 (stereo partly drawn) [Compound 208, ethyl 4-(4-(4-((2R,35)-3-carbamoylbicyclo[2.2. 1]hept-5-en-2-ylamino)thieno[3,2-d]pyrimidin-2-ylamino)-2-fluorophenyl)piperazine-1-carboxylate]
< 10 µM	CONC(=O)Cc1cccc(Nc2nc(NC3C4C=CC(C4)C3C(N)=O)c3cc[nH]c3n2)c1 (racemic) [Compound 229, Racemic-(2-exo,3-exo)-N4-(3-aminocarbonylbicyclo [2.2.1]hept-5-en-2-yl)-N2-[3-(N-methoxy)-aminocarbonyl-methylphenyl]-1H-pyrrolo[2,3-d]pyrimidine-2,4-diamine]
< 5 µM	NC(=O)C1C2C=CC(C2)C1Nc1nc2c(c(Nc3ccc(OCCN4CCCC4)cc3)n1)CN(Cc1ccccc1)CC2 (stereo not shown) [Compound 186, 3-(6-benzyl-4-(4-(2-(pyrrolidin-1-yl)ethoxy)phenylamino)-5,6,7,8-tetrahydropyrido[4,3-d]pyrimidin-2-ylamino)bicyclo[2.2.1] hept-5-ene-2-carboxamide]
< 5 µM	CNC(=O)[C@H]1C[C@H]2CC(C2(C)C)[C@@]1(C)Nc1nc(Nc2ccc(OCCN3CCCC3)cc2)nc2ccsc12 (stereo in doubt) [Compound 197, (1S,2R,3S,5R)-N,2,6,6-tetramethyl-2-(2-(4-(2-(pyrrolidin-1-yl)ethoxy)phenylamino)thieno[3,2-d]pyrimidin-4-ylamino)bicyclo[3.1.1] heptane-3-carboxamide]
< 5 µM	NC(=O)C1C2C=CC(C2)C1Nc1nc(Nc2ccc(OCCN3CCCC3)c(Cl)c2)nc2ccccc12 (racemic) [Compound 216, Racemic-(2-exo,3-exo)-N4-(3-aminocarbonylbicyclo [2.2.1]hept-5-en-2-yl)-N2-(3-Chloro-4-(2-(1-pyrrolidinyl)ethoxy)phenyl)-2,4-quinazoline-diamine]
< 5 µM	NC(=O)C1C2C=CC(C2)C1Nc1nc(Nc2ccc3c(c2)OCCCO3)nc2ccsc12 (stereo not shown) [Compound 182, 3-(2-(3,4-dihydro-2H-benzo[b][1,4]dioxepin-7-ylamino)thieno[3,2-d]pyrimidin-4-ylamino)bicyclo[2.2.1] hept-5-ene-2-carboxamide]
< 5 µM	Cc1cc(Nc2nc(NC3C4C=CC(C4)C3C(N)=O)c3ccccc3n2)ccc1OCCN1CCCC1 (racemic) [Compound 215, Racemic-(2-exo,3-exo)-N4-(3-aminocarbonylbicyclo [2.2.1]hept-5-en-2-yl)-N2-(3-methyl-4-(2-(1-pyrrolidinyl)ethoxy)phenyl)-2,4-quinazoline-diamine]
< 10 µM	NC(=O)[C@H]1C2C=CC(C2)[C@H]1Nc1nc(Nc2ccc(C(=O)N3CCN(C4CCCCC4)CC3)cc2)nc2cc(C(F)(F)F)sc12 (stereo partly drawn) [Compound 211, (2S,3R)-3-(2-(4-(4-cyclohexylpiperazine-1-carbonyl)phenylamino)-6-(trifluoromethyl)thieno [3,2-d]pyrimidin-4 ylamino)bicyclo[2.2.1] hept-5-ene-2-carboxamide]
